In patent publication US7015215B2, “Pyrrolo[2,1-c][1,4] benzodiazepines compounds and process thereof” (Council of Scientific and Industrial Research, priority 2003, dated 2006):

Columns and labels:
Format in all cases: cell-based, human
[1] = test system: MOLT-4; assay: NCI SRB cytotoxicity, Leukemia MOLT-4; details: MOLT-4, Leukemia, 48 h
Description: (§1) Biological Activity: In vitro biological activity studies were carried out at National Cancer Institute (U.S.A.).
(§2) For each compound, dose response curves for each cell line were measured at a minimum of five concentrations at 10 fold dilutions. A protocol of 48 h continuous drug exposure was used, and a sulforhodamine B (SRB) protein assay was used to estimate cell viability or growth. The concentration causing 50% cell growth inhibition (GI50), total cell growth inhibition (TGI, 0% growth) and 50% cell death (LC50, −50% growth) compared with the control was calculated.

[2] = test system: A549/ATCC; assay: NCI SRB cytotoxicity, Non-small-cell lung A549/ATCC; details: 48 h
[3] = test system: EKVX; assay: NCI SRB cytotoxicity, Non-small-cell lung EKVX; details: 48 h
[4] = test system: HOP-62; assay: NCI SRB cytotoxicity, Non-small-cell lung HOP-62; details: HOP-62, Non-small-cell lung, 48 h
Description: as §1, §2

[5] = test system: NCI-H226; assay: NCI SRB cytotoxicity, Non-small-cell lung NCI-H226; details: 48 h
[6] = test system: NCI-H23; assay: NCI SRB cytotoxicity, Non-small-cell lung NCI-H23; details: 48 h
[7] = test system: NCI-H322; assay: NCI SRB cytotoxicity, Non-small-cell lung NCI-H322; details: 48 h
Description: as §1, §2

[8] = test system: NCI-H460; assay: NCI SRB cytotoxicity, Non-small-cell lung NCI-H460; details: 48 h
Description: as §1, §2

[9] = test system: NCI-H522; assay: NCI SRB cytotoxicity, Non-small-cell lung NCI-H522; details: 48 h
Description: as §1, §2

[10] = test system: COLO 205; assay: NCI SRB cytotoxicity, Colon COLO 205; details: COLO 205, Colon, 48 h
Description: as §1, §2

[11] = test system: HCC-2998; assay: NCI SRB cytotoxicity, Colon HCC-2998; details: HCC-2998, Colon, 48 h
Description: as §1, §2

[12] = test system: HCT-15; assay: NCI SRB cytotoxicity, Colon HCT-15; details: HCT-15, Colon, 48 h
Description: as §1, §2

[13] = test system: HT-29; assay: NCI SRB cytotoxicity, Colon HT-29; details: HT-29, Colon, 48 h
Description: as §1, §2

[14] = test system: KM-12; assay: NCI SRB cytotoxicity, Colon KM-12; details: KM-12, Colon, 48 h
Description: as §1, §2

[15] = test system: SF-268; assay: NCI SRB cytotoxicity, CNS SF-268; details: SF-268, CNS, 48 h
Description: as §1, §2

[16] = test system: SNB-75; assay: NCI SRB cytotoxicity, CNS SNB-75; details: SNB-75, CNS, 48 h
[17] = test system: U251; assay: NCI SRB cytotoxicity, CNS U251; details: 48 h
Description: as §1, §2

[18] = test system: MALME-3M; assay: NCI SRB cytotoxicity, Melanoma MALME-3M; details: 48 h
Description: as §1, §2

[19] = test system: M14; assay: NCI SRB cytotoxicity, Melanoma M14; details: 48 h
Description: as §1, §2

[20] = test system: SK-MEL-28; assay: NCI SRB cytotoxicity, Melanoma SK-MEL-28; details: SK-MEL-28, Melanoma, 48 h
Description: as §1, §2

[21] = test system: SK-MEL-5; assay: NCI SRB cytotoxicity, Melanoma SK-MEL-5; details: SK-MEL-5, Melanoma, 48 h
Description: as §1, §2

[22] = test system: UACC-257; assay: NCI SRB cytotoxicity, Melanoma UACC-257; details: UACC-257, Melanoma, 48 h
Description: as §1, §2

[23] = test system: IGROVI; assay: NCI SRB cytotoxicity, Ovarian IGROVI; details: 48 h
[24] = test system: OVCAR-4; assay: NCI SRB cytotoxicity, Ovarian OVCAR-4; details: OVCAR-4, Ovarian, 48 h
Description: as §1, §2

[25] = test system: OVCAR-5; assay: NCI SRB cytotoxicity, Ovarian OVCAR-5; details: OVCAR-5, Ovarian, 48 h
Description: as §1, §2

[26] = test system: OVCAR-8; assay: NCI SRB cytotoxicity, Ovarian OVCAR-8; details: OVCAR-8, Ovarian, 48 h
Description: as §1, §2

[27] = test system: A498; assay: NCI SRB cytotoxicity, Renal A498; details: 48 h
Description: as §1, §2

[28] = test system: ACHN; assay: NCI SRB cytotoxicity, Renal ACHN; details: 48 h
Description: as §1, §2

[29] = test system: RXF 393; assay: NCI SRB cytotoxicity, Renal RXF 393; details: RXF 393, Renal, 48 h
Description: as §2

[30] = test system: TK-10; assay: NCI SRB cytotoxicity, Renal TK-10; details: TK-10, Renal, 48 h
Description: as §1, §2

[31] = test system: PC-3; assay: NCI SRB cytotoxicity, Prostate PC-3; details: PC-3, Prostate, 48 h
Description: as §2

[32] = test system: DU-145; assay: NCI SRB cytotoxicity, Prostate DU-145; details: DU-145, Prostate, 48 h
[33] = test system: NCI/ADR-RES; assay: NCI SRB cytotoxicity, Breast NCI/ADR-RES; details: 48 h
Description: as §1, §2

[34] = test system: MDA-MB-231/ATCC; assay: NCI SRB cytotoxicity, Breast MDA-MB-231/ATCC; details: 48 h
[35] = test system: HS578T; assay: NCI SRB cytotoxicity, Breast HS578T; details: 48 h
Description: as §1, §2

[36] = test system: MDA-MB-435; assay: NCI SRB cytotoxicity, Breast MDA-MB-435; details: MDA-MB-435, Breast, 48 h
Description: as §1, §2

[37] = test system: BT-549; assay: NCI SRB cytotoxicity, Breast BT-549; details: BT-549, Breast, 48 h
Description: as §1, §2

[38] = test system: T-47D; assay: NCI SRB cytotoxicity, Breast T-47D; details: 48 h

COc1cc2c(cc1OCCCN1CCN(CCCOc3cc4c(cc3OC)C(=O)N3CCC[C@H]3C=N4)CC1)N=C[C@@H]1CCCN1C2=O [Compound VIb, 1,1′-{[(bispropane-1,N-diyl)piperazine]dioxy}bis[(11aS)-7-methoxy-1,2,3,11a-tetrahydro-5H-pyrrolo[2,1-c][1,4]benzodiazepin-5-one]]
Log GI 50 [1]: −6.50 mol/L
Log LC 50 [1]: −4.08 mol/L
Log GI 50 [2]: −4.37 mol/L
Log LC 50 [2]: −4.00 mol/L
Log GI 50 [3]: −4.47 mol/L
Log LC 50 [3]: −4.00 mol/L
Log GI 50 [4]: −5.14 mol/L
Log LC 50 [4]: −4.00 mol/L
Log GI 50 [5]: −4.34 mol/L
Log LC 50 [5]: −4.00 mol/L
Log GI 50 [6]: −4.89 mol/L
Log LC 50 [6]: −4.00 mol/L
Log GI 50 [7]: −4.57 mol/L
Log LC 50 [7]: −4.00 mol/L
Log GI 50 [8]: −5.37 mol/L
Log LC 50 [8]: −4.00 mol/L
Log GI 50 [9]: −6.40 mol/L
Log LC 50 [9]: −4.00 mol/L
Log GI 50 [10]: −5.34 mol/L
Log LC 50 [10]: −4.00 mol/L
Log GI 50 [11]: −4.73 mol/L
Log LC 50 [11]: −4.04 mol/L
Log GI 50 [12]: −4.25 mol/L
Log LC 50 [12]: −4.00 mol/L
Log GI 50 [13]: −4.46 mol/L
Log LC 50 [13]: −4.00 mol/L
Log GI 50 [14]: −4.64 mol/L
Log LC 50 [14]: −4.00 mol/L
Log GI 50 [15]: −5.52 mol/L
Log GI 50 [16]: −4.61 mol/L
Log LC 50 [16]: −4.00 mol/L
Log GI 50 [17]: −5.41 mol/L
Log LC 50 [17]: −4.00 mol/L
Log GI 50 [18]: −5.39 mol/L
Log GI 50 [19]: −5.55 mol/L
Log LC 50 [19]: −4.00 mol/L
Log GI 50 [20]: −4.48 mol/L
Log LC 50 [20]: −4.00 mol/L
Log GI 50 [21]: −5.66 mol/L
Log LC 50 [21]: −4.50 mol/L
Log GI 50 [22]: −4.45 mol/L
Log LC 50 [22]: −4.00 mol/L
Log GI 50 [23]: −5.26 mol/L
Log LC 50 [23]: −4.00 mol/L
Log GI 50 [24]: −4.13 mol/L
Log LC 50 [24]: −4.00 mol/L
Log GI 50 [25]: −5.06 mol/L
Log LC 50 [25]: −4.00 mol/L
Log GI 50 [26]: −4.48 mol/L
Log LC 50 [26]: −4.00 mol/L
Log GI 50 [27]: −5.73 mol/L
Log LC 50 [27]: −4.00 mol/L
Log GI 50 [28]: −4.47 mol/L
Log LC 50 [28]: −4.00 mol/L
Log GI 50 [29]: −5.68 mol/L
Log LC 50 [29]: −4.09 mol/L
Log GI 50 [30]: −5.10 mol/L
Log LC 50 [30]: −4.00 mol/L
Log GI 50 [31]: −5.53 mol/L
Log LC 50 [31]: −4.00 mol/L
Log GI 50 [32]: −5.62 mol/L
Log LC 50 [32]: −4.00 mol/L
Log GI 50 [33]: −4.00 mol/L
Log LC 50 [33]: −4.00 mol/L
Log GI 50 [34]: −4.52 mol/L
Log LC 50 [34]: −4.00 mol/L
Log GI 50 [35]: −6.13 mol/L
Log LC 50 [35]: −4.00 mol/L
Log GI 50 [36]: −5.37 mol/L
Log LC 50 [36]: −4.09 mol/L
Log GI 50 [37]: −5.77 mol/L
Log LC 50 [37]: −4.00 mol/L
Log GI 50 [38]: −5.16 mol/L
Log LC 50 [38]: −4.00 mol/L
